Reference: patent publication US12692262B2, “Substituted ureas as orexin receptor agonists” (Merck Sharp & Dohme LLC, priority 2020, dated 2026)

Target: T1, human OX2R (Homo sapiens, UniProt O43614)
T1 construct: expressed in transfected cells; host or cells: CHO (Chinese hamster ovary) cells grown under G418 selection
T1 sequence (O43614 1-444): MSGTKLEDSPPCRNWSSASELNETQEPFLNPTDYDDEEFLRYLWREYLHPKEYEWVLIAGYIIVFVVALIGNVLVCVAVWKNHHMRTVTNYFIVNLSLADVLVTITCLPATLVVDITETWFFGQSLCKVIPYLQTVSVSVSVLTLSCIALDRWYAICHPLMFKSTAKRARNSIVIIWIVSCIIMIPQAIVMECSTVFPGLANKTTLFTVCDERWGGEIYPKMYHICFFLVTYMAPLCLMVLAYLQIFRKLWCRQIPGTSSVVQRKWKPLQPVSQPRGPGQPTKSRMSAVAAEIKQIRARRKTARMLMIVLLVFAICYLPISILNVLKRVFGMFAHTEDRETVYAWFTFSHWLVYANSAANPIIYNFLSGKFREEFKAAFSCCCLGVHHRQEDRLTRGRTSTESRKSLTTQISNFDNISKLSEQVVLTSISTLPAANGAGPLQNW
Experiment: IPOne (IP-1 accumulation) assay in CHO cells expressing human OX2R
Assay type: cell-based
Conditions: for EC50: CHO cells expressing human OX2R, IP-One assay, 2 h incubation, four parameter logistic fit, read-out: OX2R Potency, EC50; for % of maximum agonist effect (relative to Orexin A): percent effect vs mean max effect of a reference compound at 1 uM (100% activity vs Orexin A), human OX2R
From the text: The utility of the compounds in accordance with the present invention as orexin receptor OX1R and/or OX2R agonists may be readily determined without undue experimentation by methodology well known in the art. Both the OX1R and/or OX2R G-coupled protein receptors (GPCRs) couple through the Gαq signaling pathway, which ultimately promotes calcium mobilization via inositol triphosphate (IP3) production. […] The utility of the compounds in accordance with the present invention as orexin receptor OX1R and/or OX2R agonists may be determined utilizing this assay.
In a typical experiment, the OX1 and OX2 receptor agonist activity is determined in accordance with the following general experimental method. Chinese hamster ovary (CHO) cells expressing human OX1R and/or the human OX2R were grown in Iscove's modified DMEM containing glutaMAX™, 1% G418, 100 U/mL penicillin, 100 μg/mL streptomycin and 10% heat-inactivated qualified fetal bovine serum (FBS). […] During this incubation, IP-one detection reagents were prepared (38:1:1 lysis buffer:D2:AB-cryptate reagents).
For each compound, data were fit to a four parameter logistic fit (ActivityBase software) and the EC50 was reported as the inflection point of the resulting curve. […] The intrinsic orexin receptor agonist activity of a compound which may be used in the present invention may be determined by these assays.

Q: With `CC[C@H](CCC(F)(F)F)NC(=O)N(CC(F)F)C(c1cc(-c2cn3ncnc3c(OC)n2)c(OC)cn1)C(F)(F)F` (stereo partly drawn) [Example 2-20, 1-(2,2-difluoroethyl)-1-(2,2,2-trifluoro-1-(5-methoxy-4-(8-methoxy-[1,2,4]triazolo[1,5-a]pyrazin-6-yl)pyridin-2-yl)ethyl)-3-((R)-6,6,6-trifluorohexan-3-yl)urea] as the compound, how does the EC50 read?
A: 341 nM

Q: And the “% of maximum agonist effect (relative to Orexin A)” value?
A: 99.7%

Q: Which EC50 does the source give for `CCN(C(=O)N[C@@H](CCC(F)(F)F)C(F)(F)F)[C@@H](c1cccc(-c2cn3ccnc3c(OC)n2)c1)C(F)(F)F` [Example 2-22, N-ethyl-N′-[(2S)-1,1,1,5,5,5-hexafluoropentan-2-yl]-N-{2,2,2-trifluoro-1-[3-(8-methoxyimidazo[1,2-a]pyrazin-6-yl)phenyl]ethyl}urea] here?
A: 2.8 nM

Q: And the “% of maximum agonist effect (relative to Orexin A)” value?
A: 101.5%

Q: Which EC50 does the source give for `CCN(C(=O)N[C@@H](C)C(F)(F)F)[C@@H](c1cc(-c2cn3ccnc3c(OC)n2)c(OC)cn1)C(F)(F)F` [Example 2-1, 1-ethyl-1-((S)-2,2,2-trifluoro-1-(5-methoxy-4-(8-methoxyimidazo[1,2-a]pyrazin-6-yl)pyridin-2-yl)ethyl)-3-((S)-1,1,1-trifluoropropan-2-yl)urea] here?
A: 6.8 nM

Q: And the “% of maximum agonist effect (relative to Orexin A)” value?
A: 100.1%

Q: How did the EC50 turn out when `CCN(C(=O)N[C@@H](CCC(F)(F)F)C(F)(F)F)C(c1cc(-c2cn3c(C#N)cnc3c(OC)n2)c(OC)cn1)C(F)(F)F` (stereo partly drawn) [Example 10-12, 1-(1-(4-(3-cyano-8-methoxyimidazo[1,2-a]pyrazin-6-yl)-5-methoxypyridin-2-yl)-2,2,2-trifluoroethyl)-1-ethyl-3-((S)-1,1,1,5,5,5-hexafluoropentan-2-yl)urea] was run?
A: 70.1 nM

Q: And the “% of maximum agonist effect (relative to Orexin A)” value?
A: 100.5%

Q: For `CCN(C(=O)NC(C1CCC1)C(F)(F)F)[C@@H](c1cc(-c2cn3ccnc3c(OC)n2)c(OC)cn1)C(F)(F)F` (stereo partly drawn) [Example 2-5, 3-(1-cyclobutyl-2,2,2-trifluoroethyl)-1-ethyl-1-((S)-2,2,2-trifluoro-1-(5-methoxy-4-(8-methoxyimidazo[1,2-a]pyrazin-6-yl)pyridin-2-yl)ethyl)urea], which EC50 is on record?
A: 10.7 nM

Q: What about the “% of maximum agonist effect (relative to Orexin A)” value of the same compound?
A: 100.7%

Q: `CC[C@H](CC(F)(F)F)NC(=O)N(CC)C(c1cc(-c2cn3ccnc3c(OC)n2)c(OC)cn1)C(F)(F)F` (stereo partly drawn) [Example 6-2, 1-ethyl-1-(2,2,2-trifluoro-1-(5-methoxy-4-(8-methoxyimidazo[1,2-a]pyrazin-6-yl)pyridin-2-yl)ethyl)-3-((R)-1,1,1-trifluoropentan-3-yl)urea] was tested. Which EC50 did it give?
A: 8.1 nM

Q: And the “% of maximum agonist effect (relative to Orexin A)” value?
A: 100.1%

Q: How did the EC50 turn out when `CCN(C(=O)N[C@@H](CCC#N)C(F)(F)F)[C@@H](c1cc(-c2cn3ccnc3c(OC)n2)c(OC)cn1)C(F)(F)F` [Example 2-35, 3-((S)-4-cyano-1,1,1-trifluorobutan-2-yl)-1-ethyl-1-((S)-2,2,2-trifluoro-1-(5-methoxy-4-(8-methoxyimidazo[1,2-a]pyrazin-6-yl)pyridin-2-yl)ethyl)urea] was run?
A: 0.9 nM

Q: And the “% of maximum agonist effect (relative to Orexin A)” value?
A: 102.3%

Q: `CCN(C(=O)NC(C1CCOCC1)C(F)(F)F)[C@@H](c1cc(-c2cn3cc(C)nc3c(OC)n2)c(OC)cn1)C(F)(F)F` (stereo partly drawn) [Example 2-48, 1-ethyl-1-((S)-2,2,2-trifluoro-1-(5-methoxy-4-(8-methoxy-2-methylimidazo[1,2-a]pyrazin-6-yl)pyridin-2-yl)ethyl)-3-(2,2,2-trifluoro-1-(tetrahydro-2H-pyran-4-yl)ethyl)urea] was tested. Which EC50 did it give?
A: 17.6 nM

Q: And the “% of maximum agonist effect (relative to Orexin A)” value?
A: 101.0%

Q: `CCN(C(=O)NC(CNS(=O)(=O)N(C)C)C(F)(F)F)[C@H](C)c1cccc(-c2cn3ccnc3c(OC)n2)c1` (stereo partly drawn) [Example 17, N-{3-[(dimethylsulfamoyl)amino]-1,1,1-trifluoropropan-2-yl}-N-ethyl-N-{(1R)-1-[3-(8-methoxyimidazo[1,2-a]pyrazin-6-yl)phenyl]ethyl}urea] was tested. Which EC50 did it give?
A: 0.7 nM

Q: What about the “% of maximum agonist effect (relative to Orexin A)” value of the same compound?
A: 101.8%

Q: `C#CCCCC(NC(=O)N(CC)[C@H](C)c1cccc(-c2cn3ccnc3c(OC)n2)c1)C(F)(F)F` (stereo partly drawn) [Example 3-7, 1-ethyl-1-((R)-1-(3-(8-methoxyimidazo[1,2-a]pyrazin-6-yl)phenyl)ethyl)-3-(1,1,1-trifluorohept-6-yn-2-yl)urea] was tested. Which EC50 did it give?
A: 4.4 nM

Q: What about the “% of maximum agonist effect (relative to Orexin A)” value of the same compound?
A: 100.5%

Q: How did the EC50 turn out when `CCN(C(=O)NC(CO)C(F)(F)F)[C@H](C)c1cccc(-c2cn3ccnc3c(OC)n2)c1` (single isomer, unassigned) [Example 21] was run?
A: 50.9 nM

Q: And the “% of maximum agonist effect (relative to Orexin A)” value?
A: 96.3%

Q: Which results are given for `CC[C@H](CCC(F)(F)F)NC(=O)N(CC)[C@H](C)c1cccc(-c2cn3ccnc3cc2Cl)c1` [Example 8-15, 1-((R)-1-(3-(7-chloroimidazo[1,2-a]pyridin-6-yl)phenyl)ethyl)-1-ethyl-3-((R)-6,6,6-trifluorohexan-3-yl)urea]?
A: EC50: 188 nM; % of maximum agonist effect (relative to Orexin A): 94.1%

Q: Which results are given for `CCOC(=O)CC(NC(=O)N(CC)[C@H](C)c1cccc(-c2cn3ccnc3c(OC)n2)c1)C(F)(F)F` (stereo partly drawn) [Example 1-11, ethyl 3-(3-ethyl-3-((R)-1-(3-(8-methoxyimidazo[1,2-a]pyrazin-6-yl)phenyl)ethyl)ureido)-4,4,4-trifluorobutanoate]?
A: EC50: 20.1 nM; % of maximum agonist effect (relative to Orexin A): 98.0%

Q: Which EC50 does the source give for `CCC(CCC(F)(F)F)NC(=O)N(CC)[C@H](C)c1cccc(-c2cn3ccnc3cc2C)c1` (stereo partly drawn) [Example 8-8, 1-ethyl-1-((R)-1-(3-(7-methylimidazo[1,2-a]pyridin-6-yl)phenyl)ethyl)-3-(6,6,6-trifluorohexan-3-yl)urea] here?
A: 248 nM

Q: And the “% of maximum agonist effect (relative to Orexin A)” value?
A: 102.1%

Q: Which results are given for `CC[C@H](CCC(F)(F)F)NC(=O)N(CC)[C@@H](c1cc(-c2cn3ccnc3c(OC)n2)c(OC)cn1)C(F)(F)F` [Example 2-21, 1-ethyl-1-((S)-2,2,2-trifluoro-1-(5-methoxy-4-(8-methoxyimidazo[1,2-a]pyrazin-6-yl)pyridin-2-yl)ethyl)-3-((R)-6,6,6-trifluorohexan-3-yl)urea]?
A: EC50: 0.8 nM; % of maximum agonist effect (relative to Orexin A): 99.6%

Q: How did the EC50 turn out when `CCN(C(=O)N[C@@H]1CC[C@H](C(F)(F)F)C1)[C@H](C)c1cccc(-c2cn3ccnc3c(OC)n2)c1` [Example 1-3, 1-ethyl-1-((R)-1-(3-(8-methoxyimidazo[1,2-a]pyrazin-6-yl)phenyl)ethyl)-3-((1R,3S)-3-(trifluoromethyl)cyclopentyl)urea] was run?
A: 6.5 nM

Q: And the “% of maximum agonist effect (relative to Orexin A)” value?
A: 99.9%

Q: `CCN(C(=O)N[C@@H](CCC(F)(F)F)C(F)(F)F)[C@@H](c1cc(-c2cc3scnc3c(OC)n2)c(OC)cn1)C(F)(F)F` [Example 10-8, 1-ethyl-3-((S)-1,1,1,5,5,5-hexafluoropentan-2-yl)-1-((S)-2,2,2-trifluoro-1-(5-methoxy-4-(4-methoxythiazolo[4,5-c]pyridin-6-yl)pyridin-2-yl)ethyl)urea] was tested. Which EC50 did it give?
A: 2.3 nM

Q: And the “% of maximum agonist effect (relative to Orexin A)” value?
A: 100.7%

Q: `CCN(C(=O)NC(CC1CCCO1)C(F)(F)F)[C@@H](c1cc(-c2cn3cc(C)nc3c(OC)n2)c(OC)cn1)C(F)(F)F` (stereo partly drawn) [Example 2-46, 1-ethyl-1-((S)-2,2,2-trifluoro-1-(5-methoxy-4-(8-methoxy-2-methylimidazo[1,2-a]pyrazin-6-yl)pyridin-2-yl)ethyl)-3-(1,1,1-trifluoro-3-(tetrahydrofuran-2-yl)propan-2-yl)urea] was tested. Which EC50 did it give?
A: 11.7 nM

Q: What about the “% of maximum agonist effect (relative to Orexin A)” value of the same compound?
A: 100.9%

Q: Which EC50 does the source give for `CCN(C(=O)N[C@@H](CCC(C)(F)F)C(F)(F)F)[C@H](C)c1cnc(OC)c(-c2cn3ccnc3c(OC)n2)c1` [Example 10-19, 1-ethyl-1-((R)-1-(6-methoxy-5-(8-methoxyimidazo[1,2-a]pyrazin-6-yl)pyridin-3-yl)ethyl)-3-((S)-1,1,1,5,5-pentafluorohexan-2-yl)urea] here?
A: 0.8 nM

Q: What about the “% of maximum agonist effect (relative to Orexin A)” value of the same compound?
A: 100.6%

Q: Which results are given for `CCN(C(=O)N[C@@H](CCC(F)(F)F)C(F)(F)F)[C@H](C)c1cccc(-c2ccc3nccn3c2)c1` [Example 1-1, 1-ethyl-3-((S)-1,1,1,5,5,5-hexafluoropentan-2-yl)-1-((R)-1-(3-(imidazo[1,2-a]pyridin-6-yl)phenyl)ethyl)urea]?
A: EC50: 7.1 nM; % of maximum agonist effect (relative to Orexin A): 98.4%

Q: How did the EC50 turn out when `CCN(C(=O)NC(C)C(F)F)[C@@H](c1cc(-c2cn3ccnc3c(OC)n2)c(OC)cn1)C(F)(F)F` (stereo partly drawn) [Example 2-41, 3-(1,1-difluoropropan-2-yl)-1-ethyl-1-((S)-2,2,2-trifluoro-1-(5-methoxy-4-(8-methoxyimidazo[1,2-a]pyrazin-6-yl)pyridin-2-yl)ethyl)urea] was run?
A: 16.3 nM

Q: And the “% of maximum agonist effect (relative to Orexin A)” value?
A: 101.2%
